The text below walks through data of patent publication US7064144B2, “Imidazole derivatives as adenosine deaminase inhibitors” (Astellas Pharma Inc., priority 2001, dated 2006).

Molecules are shown by their SMILES.

One data set has as its target T1, Human ADA (Homo sapiens, UniProt P00813).
T1 construct: made in house
T1 sequence (P00813 1-363): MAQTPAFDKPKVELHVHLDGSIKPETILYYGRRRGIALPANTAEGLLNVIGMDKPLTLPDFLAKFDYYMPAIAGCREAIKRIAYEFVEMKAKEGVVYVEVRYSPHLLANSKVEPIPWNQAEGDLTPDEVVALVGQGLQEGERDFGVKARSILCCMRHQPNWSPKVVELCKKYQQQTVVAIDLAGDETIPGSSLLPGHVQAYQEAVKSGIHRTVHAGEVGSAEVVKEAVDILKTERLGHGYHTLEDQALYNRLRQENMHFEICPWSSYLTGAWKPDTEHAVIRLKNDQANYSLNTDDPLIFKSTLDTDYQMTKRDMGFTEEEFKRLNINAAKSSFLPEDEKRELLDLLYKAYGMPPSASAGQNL
Put plainly: Adenosine Deaminase (ADA) Enzyme Assay. The conditions noted are these: 50% inhibition of Vmax vs vehicle; 0.16 μg/ml ADA, 0.1 mM adenosine, 10 mM phosphate buffer saline pH 7.4, room temperature, A265. Format: biochemical. An excerpt: Adenosine Deaminase (ADA) Enzyme Assay
• 1-[(2S,3R)-5-(1,1′-biphenyl-3-yloxy)-2-hydroxy-3-pentyl]imidazole-4-carboxamide (Example 20) • 1-{(2S,3R)-2-hydroxy-5-[3-(2-thienyl)phenoxy]-3-pentyl}imidazole-4-carboxamide (Example 32) • 1-[(2S,3R)-2-hydroxy-5-(2-quinolyloxy)-3-pentyl]imidazole-4-carboxamide (Example 49) • 1-[(2S,3R)-2-hydroxy-5-(2-naphthylthio)-3-pentyl]imidazole-4-carboxamide (Example 76) • 1-[(2S,3R)-2-hydroxy-5-(2-quinolylthio)-3-pentyl]imidazole-4-carboxamide (Example 78) Test Method:
The reaction velocity (V) is measured by a change in absorbance at 265 nm (A265) resulting from the deamination of adenosine. Human ADA was expressed and purified from ADA-deficient bacterial strain. Reaction mixtures of a total volume of 200 μl contained 0.16 μg/ml of ADA and 0.1 mM of adenosine and test compound in 10 mM phosphate buffer saline (pH 7.4). The reaction was started by addition of ADA to a mixture of adenosine and test compound. The reaction was followed at room temperature by recording decrease in A265 for 3 minutes in SPECTRAmax 250 (Molecular Devices, USA) to automatically calculate Vmax. Inhibitory potency of test compound was expressed as IC50 value, the drug concentration required to produce 50% inhibition of Vmax in comparison to vehicle treatment.

As a reminder, the melting point is the temperature, or range, at which the solid turns liquid. For the compound `C[C@H](O)[C@H](CSc1cccc2ccccc12)n1cnc(C(N)=O)c1.Cl`, the melting point was > 168 °C (dec.).

As usually defined, the IC50 is the point on the concentration scale where inhibition reaches its midpoint. Read a low IC50 as inhibition by little substance. The compound `C[C@H](O)[C@@H](CCOc1cccc(-c2ccccc2)c1)n1cnc(C(N)=O)c1` [Example 20, 1-[(2S,3R)-5-(1,1′-biphenyl-3-yloxy)-2-hydroxy-3-pentyl]imidazole-4-carboxamide] registered an IC50 at Human ADA of less than 20 nM. `C[C@H](O)[C@@H](CCOc1ccc(-c2ccccc2)cc1)n1cnc(C(N)=O)c1` [Example 28, 1-[(2S,3R)-5-(1,1′-biphenyl-4-yloxy)-2-hydroxy-3-pentyl]imidazole-4-carboxamide] returned a melting point of 191 to 193 °C. In turn, `C[C@H](O)[C@@H](CCOc1cccc(-c2cccs2)c1)n1cnc(C(N)=O)c1` [Example 32, 1-{(2S,3R)-2-hydroxy-5-[3-(2-thienyl)phenoxy]-3-pentyl}imidazole-4-carboxamide] yielded an IC50 at Human ADA of less than 20 nM. Still for that read-out and setting: the same measure for `C[C@H](O)[C@@H](CCOc1ccc2ccccc2n1)n1cnc(C(N)=O)c1` [Example 49, 1-[(2S,3R)-2-hydroxy-5-(2-quinolyloxy)-3-pentyl]imidazole-4-carboxamide]: less than 20 nM. The compound `C[C@H](O)[C@@H](CCOc1ccc2c(ccn2C)c1)n1cnc(C(N)=O)c1` [Example 75, 1-[(2S,3R)-2-hydroxy-5-(1-methyl-1H-indol-5-yloxy)-3-pentyl]imidazole-4-carboxamide] registered a melting point of 211 to 213.5 °C. `C[C@H](O)[C@@H](CCSc1ccc2ccccc2c1)n1cnc(C(N)=O)c1` [Example 76, 1-[(2S,3R)-2-hydroxy-5-(2-naphthylthio)-3-pentyl]imidazole-4-carboxamide] returned an IC50 against Human ADA of less than 20 nM.

`C[C@H](O)[C@@H](CCSc1ccc2ccccc2n1)n1cnc(C(N)=O)c1` [Example 78, 1-[(2S,3R)-2-hydroxy-5-(2-quinolylthio)-3-pentyl]imidazole-4-carboxamide]: the IC50 against Human ADA was less than 20 nM.

The compound `C[C@H](O)[C@@H](COc1ccc(Cl)c(Cl)c1)n1cnc(C(N)=O)c1` [Example 81, 1-{(1R,2S)-1-[(3,4-dichlorophenoxy)methyl]-2-hydroxypropyl}-1H-imidazole-4-carboxamide] returned a melting point of 115 to 121 °C. Still for that read-out and setting: the figure for `C[C@H](O)[C@@H](CCOc1cccc(-c2ccc(Cl)nc2)c1)n1cnc(C(N)=O)c1` [Example 87, 1-{(2S,3R)-5-[3-(6-chloro-3-pyridyl)phenoxy]-2-hydroxy-3-pentyl}imidazole-4-carboxamide] is 166 to 168 °C.

For the compound `C[C@H](O)[C@@H](CCOc1ccc2ccc(Cl)cc2c1)n1cnc(C(N)=O)c1` [Example 97, 1-[(2S,3R)-5-(7-chloro-2-naphthyloxy)-2-hydroxy-3-pentyl]imidazole-4-carboxamide], the melting point lay in the range of 139 to 141 °C. On the same count and under the same terms, the same measure for `C[C@H](O)[C@H](CSc1ccc2ccccc2c1)n1cnc(C(N)=O)c1` [Example 102, 1-{(1R,2S)-2-hydroxy-1-[(2-naphthylthio)methyl]propyl}-1H-imidazole-4-carboxamide]: > 108 °C (dec.). Take `C[C@H](O)[C@H](CSc1cccc(Cl)c1Cl)n1cnc(C(N)=O)c1` [Example 104, 1-{(1R,2S)-1-{[(2,3-dichlorophenyl)thio]methyl}-2-hydroxypropyl}-1H-imidazole-4-carboxamide]: the melting point is > 120 °C (dec.).
